Reference: paper PMC8355244, “A fragment-based approach identifies an allosteric pocket that impacts malate dehydrogenase activity” (Communications Biology, 2021)
“And” between values parts separate entries of the source, which are not always exact repeats. Equal values may be shown once. Read-outs that look alike come from different tables or passages of the source.

How the values were obtained:
WT PfMDH [1] = target: T1, WT PfMDH (Plasmodium falciparum, UniProt Q6VVP7); experiment: Microscale thermophoresis (MST) binding to fluorescently labeled PfMDH
T1 construct: The full-length WT PfMDH gene was cloned into pETM-13; made in house; host or cells: E. coli Rosetta 2 (DE3) pLysS
Description: A Nanotemper MonolithNT.115 instrument (Nano-temper Technologies, GmbH) was used to quantify ligand/protein interactions. Purified PfMDH was labeled using the Red-NHS Monolith Protein Labeling Kit according to the manufacturer’s protocol. All reactions were performed in 100 mM Na-phosphate buffer pH 7.4, 400 mM NaCl, 0.05% Tween-20 in standard capillaries (Nanotemper Technologies GmbH). The ligand was 2× fold diluted starting from 4 mM as the highest concentration; the final protein concentration was 50 nM. All samples were incubated with compounds for about 1 h at room temperature followed by centrifugation at 18,000 rpm (Eppendorf Centrifuge 5415R) before loading into capillaries. Measurement was performed in triplicate at 40% LED intensity and 40% MST power. The Kd model was employed to determine the binding constant using the software MO.Affinity Analysis v2.3 while data collection was performed with MO.Control 2 (Nano-temper Technologies, GmbH).

V190W PfMDH = target: T2, V190W PfMDH (Plasmodium falciparum, UniProt Q6VVP7, V190W); experiment: STD-NMR fragment screening, dimeric mutant; assay type: binding; details: 10 μM protein, 1 mM fragment
T2 construct: made in house; host or cells: E. coli (stated expressly only for the WT construct)
Description: (§1) NMR spectra were acquired on Bruker Avance III (600 MHz) spectrometer at 300 K, equipped with a triple resonance cryoprobe head and an automated SampleJet sample changer. The samples for STD experiments were prepared in 100 mM Na-phosphate pH 7.4, 400 mM NaCl and spectra were recorded in water with 1:100-fold excess of the fragment (dissolved in DMSO at 100 mM) in an additional 10% (v/v) D2O to provide a lock signal. Final protein and ligand concentrations were 10 μM and 1 mM, respectively. Selective saturation of the protein resonances (on resonance spectrum) was performed by irradiating at 0.5 ppm using a series of Eburp2.1000-shaped 90 pulses (50 ms, 1 ms delay between pulses) for a total saturation time of 2.0 s. For the reference spectrum (off-resonance), the samples were irradiated at −10 ppm. On- and off-resonance scans were subtracted using phase cycling. The fragment library screening was performed by testing 300 mixtures containing five fragments each initially. Mixtures that yielded positive STD signals were selected and deconvolved, i.e., fragments that formed “active” mixtures were tested separately. Spectra were analyzed with TopSpin® software, 4.0

PfMDH [2] = target: T3, PfMDH (Plasmodium falciparum, UniProt Q6VVP7); experiment: Thermal shift assay (TSA); assay type: binding; details: for TSA melting curve raw signal: triplicate columns; for TSA melting curve raw fluorescence signal: three replicate columns
T3 construct: The full-length WT PfMDH gene was cloned into pETM-13; made in house; host or cells: E. coli Rosetta 2 (DE3) pLysS
How it was run: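 10 μM PfMDH with 1 mM compound in 100 mM Na–phosphate pH 7.4, 400 mM NaCl, 10× Sypro Orange; 1% DMSO controls. Melting inflection points taken as Tm; shifts >1 °C read as stabilization, negative shifts as destabilization.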

PfMDH [3] = target: T3, PfMDH; experiment: Kinetics experiment with varying L-malate, substrate inhibition model; assay type: biochemical
WT PfMDH [4] = target: T1, WT PfMDH; experiment: STD-NMR fragment screening, wild type; assay type: binding; details: 10 μM protein, 100-fold molar excess
Description: as §1

[5] = 3 h exposure to 5 μM; cited from earlier work
MDH = details: cited from earlier work

T1 sequence (Q6VVP7 entry or part of it): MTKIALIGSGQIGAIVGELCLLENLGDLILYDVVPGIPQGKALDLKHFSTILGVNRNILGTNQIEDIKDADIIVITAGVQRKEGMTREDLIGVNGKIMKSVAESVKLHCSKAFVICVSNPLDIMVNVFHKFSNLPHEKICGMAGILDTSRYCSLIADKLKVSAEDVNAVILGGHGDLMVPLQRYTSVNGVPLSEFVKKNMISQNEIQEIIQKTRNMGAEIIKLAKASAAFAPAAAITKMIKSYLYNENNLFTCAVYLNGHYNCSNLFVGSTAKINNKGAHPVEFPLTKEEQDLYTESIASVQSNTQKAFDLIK
T3 sequence (Q6VVP7 entry or part of it): as above
T2 sequence (Q6VVP7 whole entry V190W, the tested form may be a part): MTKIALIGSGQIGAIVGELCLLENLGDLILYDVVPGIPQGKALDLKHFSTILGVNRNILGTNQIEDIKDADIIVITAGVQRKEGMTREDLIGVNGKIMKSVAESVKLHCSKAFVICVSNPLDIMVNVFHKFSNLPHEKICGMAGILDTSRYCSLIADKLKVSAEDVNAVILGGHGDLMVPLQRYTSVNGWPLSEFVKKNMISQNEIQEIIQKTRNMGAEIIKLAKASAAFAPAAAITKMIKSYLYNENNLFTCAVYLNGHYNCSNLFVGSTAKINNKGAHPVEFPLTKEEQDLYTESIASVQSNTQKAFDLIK

Nc1nc(-c2ccc(F)c(F)c2)cs1 [4DT, 4-(3,4-difluorophenyl) thiazol-2-amine]
Kd (WT PfMDH [1]; MST report, target 50 nM, 25.1°C, n 3, Kd Confidence ± 1.7444E-05, read-out: Kd (MST report)): 99 µM | Kd (WT PfMDH [1]; MST, 50 nM labeled WT PfMDH, ligand 240 nM to 4 mM, read-out: Kd): 99 ± 1.7 µM | STD-NMR binding (V190W PfMDH): binds to dimeric V190W PfMDH | ΔTm at 1000 µM (PfMDH [2]; 1 mM compound vs DMSO control): -2 ± 0.17 °C | Tm (PfMDH [2]; 1 mM compound, 10 μM PfMDH, DMSO control Tm 58): 56 ± 0.17 °C | TSA melting curve raw signal (PfMDH [2]; Temperature 25): 3306.061 and 3342.86 and 3324.801 | TSA melting curve raw signal (PfMDH [2]; Temperature 28.5): 3333.659 and 3382.548 and 3355.546 | TSA melting curve raw signal (PfMDH [2]; Temperature 29): 3336.65 and 3387.196 and 3360.105 | TSA melting curve raw signal (PfMDH [2]; Temperature 29.5): 3339.189 and 3391.098 and 3364.015 | TSA melting curve raw signal (PfMDH [2]; Temperature 30): 3341.416 and 3393.698 and 3368 | TSA melting curve raw signal (PfMDH [2]; Temperature 30.5): 3342.684 and 3395.106 and 3371.797 | TSA melting curve raw signal (PfMDH [2]; Temperature 31): 3343.918 and 3395.986 and 3375.352 | TSA melting curve raw signal (PfMDH [2]; Temperature 31.5): 3345.279 and 3397.252 and 3379.023 | TSA melting curve raw signal (PfMDH [2]; Temperature 32): 3347.139 and 3398.82 and 3383.605 | TSA melting curve raw signal (PfMDH [2]; Temperature 32.5): 3348.867 and 3401.838 and 3388.573 | TSA melting curve raw signal (PfMDH [2]; Temperature 33): 3351.566 and 3406.371 and 3394.323 | TSA melting curve raw signal (PfMDH [2]; Temperature 33.5): 3355.148 and 3412.286 and 3401.055 | TSA melting curve raw signal (PfMDH [2]; Temperature 34): 3359.354 and 3419.075 and 3408.698 | TSA melting curve raw signal (PfMDH [2]; Temperature 34.5): 3364.345 and 3426.84 and 3417.169 | TSA melting curve raw signal (PfMDH [2]; Temperature 35): 3370.925 and 3434.905 and 3426.749 | TSA melting curve raw signal (PfMDH [2]; Temperature 35.5): 3378.766 and 3443.449 and 3437.428 | TSA melting curve raw signal (PfMDH [2]; Temperature 36): 3388.116 and 3452.416 and 3449.193 | TSA melting curve raw signal (PfMDH [2]; Temperature 36.5): 3399.139 and 3461.927 and 3462.335 | TSA melting curve raw signal (PfMDH [2]; Temperature 37): 3411.581 and 3472.191 and 3477.03 | TSA melting curve raw signal (PfMDH [2]; Temperature 37.5): 3425.633 and 3483.607 and 3493.418 | TSA melting curve raw signal (PfMDH [2]; Temperature 38): 3441.177 and 3496.044 and 3511.6 | TSA melting curve raw signal (PfMDH [2]; Temperature 38.5): 3458.245 and 3509.831 and 3531.909 | TSA melting curve raw signal (PfMDH [2]; Temperature 39): 3477.439 and 3525.778 and 3554.709 | TSA melting curve raw signal (PfMDH [2]; Temperature 39.5): 3498.925 and 3543.752 and 3579.893 | TSA melting curve raw signal (PfMDH [2]; Temperature 40): 3522.761 and 3563.858 and 3607.657 | TSA melting curve raw signal (PfMDH [2]; Temperature 40.5): 3549.068 and 3586.405 and 3638.198 | TSA melting curve raw signal (PfMDH [2]; Temperature 41): 3578.181 and 3611.326 and 3671.73 | TSA melting curve raw signal (PfMDH [2]; Temperature 41.5): 3609.957 and 3638.555 and 3708.036 | TSA melting curve raw signal (PfMDH [2]; Temperature 42): 3645.082 and 3668.877 and 3747.413 | TSA melting curve raw signal (PfMDH [2]; Temperature 42.5): 3683.644 and 3702.365 and 3790.395 | TSA melting curve raw signal (PfMDH [2]; Temperature 43): 3726.411 and 3739.617 and 3837.462 | TSA melting curve raw signal (PfMDH [2]; Temperature 43.5): 3773.558 and 3781.332 and 3888.754 | TSA melting curve raw signal (PfMDH [2]; Temperature 44): 3825.615 and 3827.686 and 3944.903 | TSA melting curve raw signal (PfMDH [2]; Temperature 44.5): 3882.684 | TSA melting curve raw fluorescence signal (PfMDH [2]; Temperature 73.5): 7306.372 and 7609.03 and 7435.601 | TSA melting curve raw fluorescence signal (PfMDH [2]; Temperature 74): 7252.808 and 7555.848 and 7383.062 | TSA melting curve raw fluorescence signal (PfMDH [2]; Temperature 74.5): 7199.861 and 7502.703 and 7330.716 | TSA melting curve raw fluorescence signal (PfMDH [2]; Temperature 75): 7147.275 and 7449.479 and 7278.535 | TSA melting curve raw fluorescence signal (PfMDH [2]; Temperature 75.5): 7094.934 and 7396.013 and 7226.157 | TSA melting curve raw fluorescence signal (PfMDH [2]; Temperature 76): 7042.814 and 7342.543 and 7173.967 | TSA melting curve raw fluorescence signal (PfMDH [2]; Temperature 76.5): 6991.326 and 7288.895 and 7121.791 | TSA melting curve raw fluorescence signal (PfMDH [2]; Temperature 77): 6939.998 and 7235.077 and 7069.532 | TSA melting curve raw fluorescence signal (PfMDH [2]; Temperature 77.5): 6888.609 and 7181.445 and 7017.268 | TSA melting curve raw fluorescence signal (PfMDH [2]; Temperature 78): 6837.679 and 7128.499 and 6965.286 | TSA melting curve raw fluorescence signal (PfMDH [2]; Temperature 78.5): 6786.806 and 7075.655 and 6913.558 | TSA melting curve raw fluorescence signal (PfMDH [2]; Temperature 79): 6735.738 and 7023.249 and 6861.909 | TSA melting curve raw fluorescence signal (PfMDH [2]; Temperature 79.5): 6684.496 and 6971.241 and 6810.337 | TSA melting curve raw fluorescence signal (PfMDH [2]; Temperature 80): 6633.443 and 6919.222 and 6759.175 | TSA melting curve raw fluorescence signal (PfMDH [2]; Temperature 80.5): 6581.916 and 6866.533 and 6708.294 | TSA melting curve raw fluorescence signal (PfMDH [2]; Temperature 81): 6530.578 and 6813.96 and 6657.201 | TSA melting curve raw fluorescence signal (PfMDH [2]; Temperature 81.5): 6479.57 and 6761.335 and 6606.519 | TSA melting curve raw fluorescence signal (PfMDH [2]; Temperature 82): 6428.761 and 6708.745 and 6556.435 | TSA melting curve raw fluorescence signal (PfMDH [2]; Temperature 82.5): 6378.066 and 6656.727 and 6506.333 | TSA melting curve raw fluorescence signal (PfMDH [2]; Temperature 83): 6327.701 and 6605.378 and 6456.007 | TSA melting curve raw fluorescence signal (PfMDH [2]; Temperature 83.5): 6277.373 and 6554.37 and 6405.813 | TSA melting curve raw fluorescence signal (PfMDH [2]; Temperature 84): 6227.075 and 6503.782 and 6355.543 | TSA melting curve raw fluorescence signal (PfMDH [2]; Temperature 84.5): 6177.058 and 6453.083 and 6304.863 | TSA melting curve raw fluorescence signal (PfMDH [2]; Temperature 85): 6127.333 and 6402.172 and 6253.833 | TSA melting curve raw fluorescence signal (PfMDH [2]; Temperature 85.5): 6077.95 and 6351.179 and 6202.991 | TSA melting curve raw fluorescence signal (PfMDH [2]; Temperature 86): 6029.103 and 6299.937 and 6152.723 | TSA melting curve raw fluorescence signal (PfMDH [2]; Temperature 86.5): 5980.562 and 6248.441 and 6102.328 | TSA melting curve raw fluorescence signal (PfMDH [2]; Temperature 87): 5932.235 and 6197.461 and 6052.601 | TSA melting curve raw fluorescence signal (PfMDH [2]; Temperature 87.5): 5883.708 and 6146.127 and 6003.152 | TSA melting curve raw fluorescence signal (PfMDH [2]; Temperature 88): 5834.776 and 6094.257 and 5953.457 | TSA melting curve raw fluorescence signal (PfMDH [2]; Temperature 88.5): 5785.039 and 6042.085 and 5903.221 | TSA melting curve raw fluorescence signal (PfMDH [2]; Temperature 89): 5734.759 and 5989.63 and 5852.78 | TSA melting curve raw fluorescence signal (PfMDH [2]; Temperature 89.5): 5684.264 and 5936.616 and 5801.633 | TSA melting curve raw fluorescence signal (PfMDH [2]; Temperature 90): 5633.721 | Ki (substrate inhibition constant of malate) (PfMDH [3]; in the presence of 63 μM compound, control 12.5 ± 4.2): 63000 ± 31800 µM | Ki (substrate inhibition constant of malate) (PfMDH [3]; in the presence of 125 μM compound): 72900 ± 41900 µM | STD-NMR binding (WT PfMDH [4]): could not be seen to bind

O=C1NCc2c1c1c3ccccc3[nH]c1c1[nH]c3ccccc3c21 [staurosporine aglycone]
decrease in cell viability [5]: 80% | IC50 (MDH): 8 µM
